The values below come from DBAASP.

Converted amounts (≈) assume the structure as drawn. “And” between values parts separate entries of the source, which are not always exact repeats. Identical values can stand only once.

Assay in all cases: ≥ marks a high value that may be exact or a test limit, other limits are often not marked, values filed in µg/mL are converted to µM
The subject of experiment [1] is Escherichia coli ATCC 25922.
For experiment [2], the system named is Saccharomyces cerevisiae CGMCC 2.3973.
Experiment [3] relates to Pseudomonas aeruginosa ATCC 27853.
Experiment [4] concerns Staphylococcus aureus ATCC 25923.
The subject of experiment [5] is Bacillus subtilis ATCC 6633.
Experiment [6] has as its system Klebsiella pneumoniae ATCC 700603.
Experiment [7] relates to Pseudomonas aeruginosa ATCC 10145.
Another experiment concerns Escherichia coli D31.
Experiment [8] concerns Staphylococcus aureus ATCC 27660.
Experiment [9] has as its system Escherichia coli BW25113 ΔsbmA.
The test system of experiment [10] is Salmonella enterica subsp. enterica serovar Typhimurium ATCC 14028.
Experiment [11] has as its system Acinetobacter baumannii ATCC 19606.
In the next experiment the test system is Escherichia coli BW25113.
The subject of experiment [12] is Staphylococcus aureus ATCC 29213.
Experiment [13] deals with Aspergillus brasiliensis ATCC 16404.
Experiment [14] concerns Enterococcus faecalis ATCC 29212.
Experiment [15] deals with Candida albicans ATCC 10231.
Experiment [16] relates to Streptococcus iniae KCTC 3657.
Experiment [17] concerns Bacillus cereus ATCC 10876.
For experiment [18], the system named is Xanthomonas arboricola pv. pruni CFBP 5563.
The subject of experiment [19] is Pseudomonas syringae pv. syringae EPS 94.
The test system of experiment [20] is Xanthomonas fragariae Xf349-9A.
In experiment [21] the test system is Erwinia amylovora PMV 6076.
Experiment [22] concerns Xanthomonas campestris pv. Vesicatoria 2133-2.
Experiment [23] has as its system Pseudomonas syringae pv. actinidiae Psa3700.1.1.
Experiment [24] concerns Staphylococcus aureus CCARM 3089.
Experiment [25] has as its system Bacillus subtilis KCTC 3068.
Experiment [26] relates to Pseudomonas aeruginosa CCARM 2109.
Experiment [27] has as its system Staphylococcus aureus CCARM 3090.
The test system of experiment [28] is Staphylococcus epidermidis KCTC 1917.
The test system of experiment [29] is Escherichia coli KCTC 1682.
The test system of experiment [30] is Pseudomonas aeruginosa CCARM 2095.
For experiment [31], the system named is Salmonella typhimurium KCTC 1926.
In experiment [32] the test system is Staphylococcus aureus CCARM 3095.
Experiment [33] has as its system Enterococcus faecium ATCC 51559.
Experiment [34] deals with Pseudomonas aeruginosa KCTC 1637.

For the molecule `CC[C@H](C)[C@H](NC(=O)CNC(=O)[C@@H](NC(=O)[C@H](CCCCN)NC(=O)[C@@H](NC(=O)[C@H](CCCCN)NC(=O)[C@H](CCCCN)NC(=O)[C@H](CC(=O)O)NC(=O)CNC(=O)[C@H](C)N)[C@@H](C)CC)[C@@H](C)CC)C(=O)N[C@@H](CC(N)=O)C(=O)NCC(=O)N[C@@H](Cc1ccccc1)C(=O)NCC(=O)N[C@@H](CCCN=C(N)N)C(=O)N[C@H](C(=O)NCC(=O)N[C@@H](CCCN=C(N)N)C(=O)N[C@@H](CC(C)C)C(=O)O)[C@@H](C)CC` [AGDKKIKIGINGFGRIGRL], the MIC (in general, the lowest concentration that inhibits growth of the organism) was 31.8 µM (≈ 64 µg/mL) in experiment [1]; at least 254 µM in [2]; above 254 µM in experiment [3]; 254 µM (≈ 512 µg/mL) in experiment [4]; at least 254 µM in experiment [5].
As for `CC[C@H](C)[C@H](NC(=O)CNC(=O)[C@H](CCCCN)NC(=O)[C@H](Cc1ccccc1)NC(=O)[C@H](CC(C)C)NC(=O)[C@H](CCCCN)NC(=O)[C@H](CCCCN)NC(=O)[C@H](C)NC(=O)[C@H](CCCCN)NC(=O)[C@H](CCCCN)NC(=O)[C@H](Cc1c[nH]c2ccccc12)NC(=O)CNC(=O)[C@H](CCCCN)NC(=O)[C@H](C)NC(=O)[C@H](Cc1ccccc1)NC(=O)[C@@H](NC(=O)[C@H](CCCCN)NC(=O)[C@@H](NC(=O)[C@H](CC(C)C)NC(=O)[C@H](CCCCN)NC(=O)[C@@H](N)CCCCN)[C@@H](C)CC)C(C)C)C(=O)NCC(=O)O` [KKLIKVFAKGWKKAKKLFKGIG], the MIC is 1.88 µM (≈ 4.73 µg/mL) in experiment [6], 1.88 µM (≈ 4.73 µg/mL) in experiment [7], 0.94 µM (≈ 2.37 µg/mL) against Escherichia coli D31 and 0.47 µM (≈ 1.18 µg/mL) in experiment [8].
Take `CC[C@H](C)[C@H](NC(=O)[C@@H]1CCCN1C(=O)[C@@H]1CCCN1C(=O)[C@H](CCCN=C(N)N)NC(=O)[C@H](Cc1ccccc1)NC(=O)[C@@H]1CCCN1C(=O)[C@@H]1CCCN1C(=O)[C@H](Cc1ccc(O)cc1)NC(=O)[C@H](Cc1ccccc1)NC(=O)[C@@H]1CCCN1C(=O)[C@@H]1CCCN1C(=O)[C@H](CCCN=C(N)N)NC(=O)[C@@H](NC(=O)[C@@H]1CCCN1C(=O)[C@@H]1CCCN1C(=O)[C@H](CCCN=C(N)N)NC(=O)[C@H](CCCN=C(N)N)NC(=O)[C@@H](NC(=O)[C@@H]1CCCN1C(=O)[C@@H]1CCCN1C(=O)[C@H](CCCN=C(N)N)NC(=O)[C@H](Cc1ccccc1)NC(=O)[C@@H](N)CCCN=C(N)N)[C@@H](C)CC)[C@@H](C)CC)C(=O)O` [RFRPPIRRPPIRPPFYPPFRPPI]: the minimal inhibitory concentration (MIC) in experiment [9] was at least 32 µM; in experiment [6], 32 µM (≈ 91.9 µg/mL); in experiment [1], 2 µM (≈ 5.74 µg/mL); in experiment [10], 4 µM (≈ 11.5 µg/mL); in [11], 1 µM (≈ 2.87 µg/mL); against Escherichia coli BW25113, 2 µM (≈ 5.74 µg/mL). In addition, the MIC is 32 µM (≈ 91.9 µg/mL) in experiment [3] and above 64 µM in [4].
Turning to `CC[C@H](C)[C@H](NC(=O)[C@H](CCCCN)NC(=O)CNC(=O)[C@@H]1CCCN1C(=O)[C@H](Cc1cnc[nH]1)NC(=O)[C@H](CC(C)C)NC(=O)[C@H](CC(C)C)NC(=O)[C@H](Cc1ccc(O)cc1)NC(=O)[C@H](CO)NC(=O)CNC(=O)[C@H](Cc1ccc(O)cc1)NC(=O)[C@H](CC(C)C)NC(=O)[C@H](CO)NC(=O)[C@@H](N)CS)C(=O)N[C@@H](CO)C(=O)N[C@@H](Cc1ccc(O)cc1)C(=O)N[C@@H](CO)C(=O)N[C@@H](CC(C)C)C(=O)N[C@@H](Cc1cnc[nH]1)C(=O)N[C@@H](CS)C(=O)N[C@@H](CO)C(=O)N[C@@H](CCCN=C(N)N)C(=O)O` [CSLYGSYLLHPGKISYSLHCSR], the MIC in experiment [1] was 16 µM (≈ 39.8 µg/mL); in experiment [12], 32 µM (≈ 79.5 µg/mL); in [13] it was at least 64 µM; in experiment [14] it was 16 µM (≈ 39.8 µg/mL); in [3] it was 64 µM (≈ 159 µg/mL); in [15], 32 µM (≈ 79.5 µg/mL).
Turning to `CSCC[C@H](NC(=O)[C@H](Cc1ccccc1)NC(=O)[C@H](CCCCN)NC(=O)[C@H](CCCN=C(N)N)NC(=O)[C@H](Cc1ccccc1)NC(=O)CNC(=O)[C@H](CC(N)=O)NC(=O)[C@H](CCCN=C(N)N)NC(=O)[C@H](CCCCN)NC(=O)[C@@H](NC(=O)[C@H](CCCN=C(N)N)NC(=O)[C@@H](N)Cc1cnc[nH]1)C(C)C)C(=O)N[C@@H](CCCN=C(N)N)C(=O)N[C@@H](CCCN=C(N)N)C(=O)N[C@@H](CC(C)C)C(=O)N[C@@H](CCCCN)C(=O)N[C@@H](CCCCN)C(=O)N[C@@H](Cc1ccccc1)C(=O)N[C@@H](Cc1ccccc1)C(=O)N[C@@H](C)C(=O)NCC(=O)NCC(=O)O` [HRVKRNGFRKFMRRLKKFFAGG], the minimal inhibitory concentration (MIC) was 11.7 µM (≈ 32 µg/mL) in experiment [16]; 1.1 µM (≈ 3 µg/mL) in [1]; 0.731 µM (≈ 2 µg/mL) in experiment [10]; above 46.8 µM in experiment [12]; 2.92 µM (≈ 8 µg/mL) in experiment [3]; 11.7 µM (≈ 32 µg/mL) in experiment [17].
Regarding `CC(C)[C@H](N)C(=O)N[C@@H](Cc1c[nH]c2ccccc12)C(=O)N[C@@H](CC(N)=O)C(=O)N[C@@H](CCC(N)=O)C(=O)N1CCC[C@H]1C(=O)N[C@H](C(=O)N[C@@H](CCCN=C(N)N)C(=O)NCC(=O)N[C@@H](Cc1ccccc1)C(=O)N[C@@H](CCCCN)C(=O)N[C@H](C(=O)N[C@@H](Cc1ccc(O)cc1)C(=O)N[C@@H](CCC(=O)O)C(=O)O)C(C)C)C(C)C` [VWNQPVRGFKVYE], the MIC in experiment [18], in [19], in experiment [20], in experiment [21], in experiment [22] and in [23] was at least 50 µM throughout.
As to `CC[C@H](C)[C@H](NC(=O)[C@H](Cc1ccccc1)NC(=O)[C@H](CCCN=C(N)N)NC(=O)[C@@H](N)CCCCN)C(=O)N[C@@H](CCCCN)C(=O)N[C@@H](Cc1c[nH]c2ccccc12)C(=O)N[C@@H](Cc1ccc(O)cc1)C(=O)N[C@@H](CCCCN)C(=O)N[C@@H](C)C(=O)N[C@@H](Cc1c[nH]c2ccccc12)C(=O)N[C@@H](CC(N)=O)C(=O)N[C@@H](CCCCN)C(=O)N[C@@H](CCCCN)C(=O)N[C@@H](Cc1c[nH]c2ccccc12)C(=O)N[C@@H](CCCN=C(N)N)C(=O)N[C@@H](CCCCN)C(=O)N[C@@H](Cc1ccc(O)cc1)C(N)=O` [KRFIKWYKAWNKKWRKY], the MIC in experiment [24] is 2 µM (≈ 4.86 µg/mL); in [25], 8 µM (≈ 19.4 µg/mL); in [26] it was 8 µM (≈ 19.4 µg/mL); in experiment [27], 2 µM (≈ 4.86 µg/mL); in experiment [28], 4 µM (≈ 9.72 µg/mL); in [29], 4 µM and 8 µM. Besides, the MIC in experiment [30] amounted to 4 µM (≈ 9.72 µg/mL); in experiment [31] it was 2 µM (≈ 4.86 µg/mL); in experiment [32], 2 µM (≈ 4.86 µg/mL); in [33], 4 µM (≈ 9.72 µg/mL); in [34], 2 µM (≈ 4.86 µg/mL).
